The source of these data is US7205300B2, “Aryl fused azapolycyclic compounds” (Pfizer Inc, priority 1997, dated 2007).

As a reminder, the melting point is the temperature of the solid-liquid transition. Take `Cc1nc2cc3c(cc2s1)C1CNCC3C1.Cl` (stereo not shown): the melting point lay in the range of 183 to 184 °C.
With `Cl.c1nc2cc3c(cc2[nH]1)C1CNCC3C1` (stereo not shown) the figure was greater than 250 °C; with `Cc1nc2cc3c(cc2n1C)C1CNCC3C1.Cl` (stereo not shown), 225 to 230 °C.
For `CC(C)Cn1cnc2cc3c(cc21)C1CNCC3C1.Cl` (stereo not shown), the melting point was 147 to 150 °C.
Compound `Cl.Fc1ccc2c(c1)C1CNCC2C1` (stereo not shown) displayed a melting point of 260 to 262 °C.
With `Cc1nc2cc3c(cc2n1CC(C)C)C1CNCC3C1.Cl` (stereo not shown) the figure was 129 to 130 °C; with `Cl.c1ccc(-n2cnc3cc4c(cc32)C2CNCC4C2)cc1` (stereo not shown), 210 to 213 °C; with `Cc1nc2cc3c(cc2n1-c1ccccc1)C1CNCC3C1.Cl` (stereo not shown), greater than 250 °C.
Compound `CN1CC2CC(C1)c1cc3nccnc3cc12.Cl` returned a melting point greater than 250 °C.
With `Cc1nc2cc3c(cc2o1)C1CNCC3C1.Cl` (stereo not shown) the figure was greater than 250 °C.
Under `Cc1ccc2c(c1)C1CNCC2C1.Cl` (stereo not shown) stands 254 to 255 °C; under `Cl.O=C(Nc1cc2c(cc1O)C1CNCC2C1)c1ccccc1F` (stereo not shown), 125 to 130 °C; under `Cl.N#Cc1ccc2c(c1)C1CNCC2C1` (stereo not shown), 268 to 273 °C.
The compound `CC(=O)c1ccc2c(c1)C1CNCC2C1.Cl` (stereo not shown) returned a melting point of 198 to 202 °C.
Under `Cl.Clc1cc2c(cc1Cl)C1CNCC2C1` stands 283 to 291 °C; under `Cl.c1ccc(-c2cccc3c2C2CNCC3C2)cc1` (stereo not shown), 262 to 265 °C.
In the case of `Cl.Oc1cccc2c1C1CNCC2C1` (stereo not shown), the melting point lay in the range of 253 to 255 °C.
The compound `Cl.Fc1cc2c(cc1F)C1CNCC2C1` came in with a melting point of 301 to 303 °C.
With `CC(C)c1nc2cc3c(cc2o1)C1CNCC3C1.Cl` (stereo not shown) the figure was 249 to 251 °C; with `Cl.c1cnc2cc3c(cc2c1)C1CNCC3C1` (stereo not shown), 260 °C (dec.).
Consider `Cl.FC(F)(F)c1cccc2c1C1CNCC2C1` (stereo not shown), for which the melting point lay within 275 to 277 °C.
Regarding `Cc1ccc2cc3c(cc2n1)C1CNCC3C1.Cl` (stereo not shown), the melting point is > 300 °C (dec.).
With `CCc1cnc2cc3c(cc2c1)C1CNCC3C1.Cl` (stereo not shown) the figure was 288 to 291 °C (dec.); with `Cl.O=c1ccc2cc3c(cc2[nH]1)C1CNCC3C1` (stereo not shown), 300 °C (dec.); with `Cl.Fc1cccc2c1C1CNCC2C1` (stereo not shown), 269 to 271 °C.
With `Cl.O=[N+]([O-])c1ccc2c(c1)C1CNCC2C1` (stereo not shown) the figure was 265 to 270 °C; with `Cl.Nc1ccc2c(c1)C1CNCC2C1` (stereo not shown), 189 to 192 °C; with `CC(=O)Nc1ccc2c(c1)C1CNCC2C1.Cl` (stereo not shown), 225 to 230 °C.
